In patent US20260262643A1, “HERBICIDAL BENZOXAZINES” (FMC CORPORATION, priority 2022, published 2026):

Key:
oat, wild [1] = assay: Test A preemergence; format: in vivo, Avena fatua
In short: (§1)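 Weeds and crops in loam–sand blend were sprayed preemergence onto soil or postemergence at 2–10 cm (one- to two-leaf stage). Test chemicals were in a non-phytotoxic solvent with surfactant. After 10 days in the greenhouse, injury was rated visually against untreated controls on a 0 (no effect) to 100 (complete control) scale.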

blackgrass [2] = assay: Test A postemergence; format: in vivo, Alopecurus myosuroides
In short: as §1

ducksalad = assay: Test B flooded paddy test; format: in vivo, Heteranthera limosa; settings: 250 g ai/ha, Flood, 13 days, 0 to 100 scale (0 no effect, 100 complete control)
In short: (§2)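 Two-leaf plants, 3 cm flood, in-water application, 13-day greenhouse hold, visual 0–100 rating vs untreated checks.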

ragweed [3] = assay: Test A postemergence; format: in vivo, Ambrosia artemisiifolia; settings: postemergence, 10 days; for Plant response rating, Ragweed: 500 g ai/ha, visual injury, 0 to 100 scale (0 no effect, 100 complete control)
In short: as §1

corn [4] = assay: Test A preemergence; format: in vivo, Zea mays
In short: as §1

soybean [5] = assay: Test A postemergence; format: in vivo, Glycine max; settings: postemergence, 10 days; for Plant response rating, Soybean: 500 g ai/ha, visual injury, 0 to 100 scale (0 no effect, 100 complete control)
In short: as §1

barnyardgrass = assay: Test B flooded paddy test; format: in vivo, Echinochloa crus-galli; settings: 250 g ai/ha, Flood, 13 days, 0 to 100 scale (0 no effect, 100 complete control)
In short: as §2

ryegrass, Italian [6] = assay: Test A postemergence; format: in vivo, Lolium multiflorum; settings: postemergence, 10 days; for Plant response rating, Ryegrass, Italian: 500 g ai/ha, visual injury, 0 to 100 scale (0 no effect, 100 complete control)
In short: as §1

ragweed [7] = assay: Test A preemergence; format: in vivo, Ambrosia artemisiifolia
In short: as §1

foxtail, giant [8] = assay: Test A postemergence; format: in vivo, Setaria faberi; settings: postemergence, 10 days; for Plant response rating, Foxtail, Giant: visual injury, 0 to 100 scale (0 no effect, 100 complete control)
In short: as §1

soybean [9] = assay: Test A preemergence; format: in vivo, Glycine max
In short: as §1

pigweed, palmer [10] = assay: Test A postemergence; format: in vivo, Amaranthus palmeri; settings: postemergence, 10 days; for Plant response rating, Pigweed, Palmer: 500 g ai/ha, visual injury, 0 to 100 scale (0 no effect, 100 complete control)
In short: as §1

kochia [11] = assay: Test A preemergence; format: in vivo, Bassia scoparia
In short: as §1

foxtail, giant [12] = assay: Test A preemergence; format: in vivo, Setaria faberi
In short: as §1

kochia [13] = assay: Test A postemergence; format: in vivo, Bassia scoparia; settings: postemergence, 10 days; for Plant response rating, Kochia: visual injury, 0 to 100 scale (0 no effect, 100 complete control)
In short: as §1

corn [14] = assay: Test A postemergence; format: in vivo, Zea mays; settings: postemergence, 10 days; for Plant response rating, Corn: visual injury, 0 to 100 scale (0 no effect, 100 complete control)
In short: as §1

rice = assay: Test B flooded paddy test; format: in vivo, Oryza sativa; settings: 250 g ai/ha, Flood, 13 days, 0 to 100 scale (0 no effect, 100 complete control)
In short: as §2

goosegrass [15] = assay: Test A postemergence; format: in vivo, Eleusine indica; settings: postemergence, 10 days; for Plant response rating, Goosegrass: visual injury, 0 to 100 scale (0 no effect, 100 complete control)
In short: as §1

horseweed = assay: Test A postemergence; format: in vivo, Erigeron canadensis; settings: postemergence, 10 days; for Plant response rating, Horseweed: visual injury, 0 to 100 scale (0 no effect, 100 complete control)
In short: as §1

wheat [16] = assay: Test A postemergence; format: in vivo, Triticum aestivum; settings: postemergence, 10 days; for Plant response rating, Wheat: 500 g ai/ha, visual injury, 0 to 100 scale (0 no effect, 100 complete control)
In short: as §1

oat, wild [17] = assay: Test A postemergence; format: in vivo, Avena fatua; settings: postemergence, 10 days; for Plant response rating, Oat, Wild: 500 g ai/ha, visual injury, 0 to 100 scale (0 no effect, 100 complete control)
In short: as §1

goosegrass [18] = assay: Test A preemergence; format: in vivo, Eleusine indica
In short: as §1

sedge, umbrella = assay: Test B flooded paddy test; format: in vivo, Cyperus difformis; settings: 250 g ai/ha, Flood, 13 days, 0 to 100 scale (0 no effect, 100 complete control)
In short: as §2

pigweed, palmer [19] = assay: Test A preemergence; format: in vivo, Amaranthus palmeri
In short: as §1

wheat [20] = assay: Test A preemergence; format: in vivo, Triticum aestivum
In short: as §1

ryegrass, Italian [21] = assay: Test A preemergence; format: in vivo, Lolium multiflorum
In short: as §1

blackgrass [22] = assay: Test A preemergence; format: in vivo, Alopecurus myosuroides
In short: as §1

[23] = 125 g ai/ha, visual injury after 10 days, 0 to 100 scale, 0 is no effect, 100 is complete control
[24] = 500 g ai/ha, 0 to 100 scale (0 no effect, 100 complete control), 10 days
[25] = 125 g ai/ha, 0 to 100 scale, 0 no effect, 100 complete control

## CCc1ccc(-n2cncn2)cc1C(=O)N1C[C@H](C)Oc2c(Cl)cccc21 [Compound 79]
oat, wild [1]; [23]
  Plant response rating, Oat, Wild: 90
oat, wild [1]; [24]
  Plant response rating, Oat, Wild: 80
Blackgrass [2]; 125 g ai/ha, postemergence, 10 days, visual injury, 0 to 100 scale (0 no effect, 100 complete control)
  Plant response rating, Blackgrass: 80
Blackgrass [2]; 500 g ai/ha, Postemergence, 0 to 100 scale
  Plant response rating, Blackgrass: 80
ducksalad
  Plant response rating, Ducksalad: 45
Ragweed [3]
  Plant response rating, Ragweed: 50
Corn [4]; [23]
  Plant response rating, Corn: 20
Corn [4]; [24]
  Plant response rating, Corn: 40
Soybean [5]
  Plant response rating, Soybean: 100
barnyardgrass
  Plant response rating, Barnyardgrass: 0
ryegrass, Italian [6]
  Plant response rating, Ryegrass, Italian: 100
Ragweed [7]; [23]
  Plant response rating, Ragweed: 0
Ragweed [7]; [24]
  Plant response rating, Ragweed: 30
foxtail, giant [8]; 125 g ai/ha
  Plant response rating, Foxtail, Giant: 90
foxtail, giant [8]; 500 g ai/ha
  Plant response rating, Foxtail, Giant: 90
Soybean [9]; [23]
  Plant response rating, Soybean: 60
Soybean [9]; [24]
  Plant response rating, Soybean: 90
pigweed, palmer [10]
  Plant response rating, Pigweed, Palmer: 90
Kochia [11]; [23]
  Plant response rating, Kochia: 20
Kochia [11]; [24]
  Plant response rating, Kochia: 40
foxtail, giant [12]; [23]
  Plant response rating, Foxtail, Giant: 100
foxtail, giant [12]; [24]
  Plant response rating, Foxtail, Giant: 100
Kochia [13]; 125 g ai/ha
  Plant response rating, Kochia: 30
Kochia [13]; 500 g ai/ha
  Plant response rating, Kochia: 60
Corn [14]; 125 g ai/ha
  Plant response rating, Corn: 40
Corn [14]; 500 g ai/ha
  Plant response rating, Corn: 80
rice
  Plant response rating, Rice: 0
Goosegrass [15]; 125 g ai/ha
  Plant response rating, Goosegrass: 20
Goosegrass [15]; 500 g ai/ha
  Plant response rating, Goosegrass: 80
horseweed; 125 g ai/ha
  Plant response rating, Horseweed: 0
horseweed; 500 g ai/ha
  Plant response rating, Horseweed: 20
Wheat [16]
  Plant response rating, Wheat: 50
oat, wild [17]
  Plant response rating, Oat, Wild: 80
Goosegrass [18]; [23]
  Plant response rating, Goosegrass: 100
Goosegrass [18]; [24]
  Plant response rating, Goosegrass: 100
sedge, umbrella
  Plant response rating, Sedge, Umbrella: 98
pigweed, palmer [19]; [23]
  Plant response rating, Pigweed, Palmer: 40
pigweed, palmer [19]; [24]
  Plant response rating, Pigweed, Palmer: 100
Wheat [20]; [23]
  Plant response rating, Wheat: 10
Wheat [20]; [24]
  Plant response rating, Wheat: 50
ryegrass, Italian [21]; [23]
  Plant response rating, Ryegrass, Italian: 60
ryegrass, Italian [21]; [24]
  Plant response rating, Ryegrass, Italian: 100
Blackgrass [22]; [23]
  Plant response rating, Blackgrass: 50
Blackgrass [22]; [24]
  Plant response rating, Blackgrass: 70

## C[C@H]1CN(C(=O)c2cc(Cl)cc(-n3cncn3)c2)c2cccc(Cl)c2O1 [Compound 81]
oat, wild [1]; [23]
  Plant response rating, Oat, Wild: 50
oat, wild [1]; [24]
  Plant response rating, Oat, Wild: 80
Blackgrass [2]; 125 g ai/ha, postemergence, 10 days, 0 to 100 scale, 0 no effect, 100 complete control
  Blackgrass plant response rating: 0
Blackgrass [2]; 500 g ai/ha, postemergence, 10 days, visual injury, 0 to 100 scale (0 no effect, 100 complete control)
  Plant response rating, Blackgrass: 60
ducksalad
  Plant response rating, Ducksalad: 0
Ragweed [3]; [25]
  Ragweed plant response rating: 20
Ragweed [3]
  Plant response rating, Ragweed: 20
Corn [4]; [23]
  Plant response rating, Corn: 0
Corn [4]; [24]
  Plant response rating, Corn: 0
Soybean [5]; [25]
  Soybean plant response rating: 100
Soybean [5]
  Plant response rating, Soybean: 100
barnyardgrass
  Plant response rating, Barnyardgrass: 0
ryegrass, Italian [6]; [25]
  Ryegrass, Italian plant response rating: 30
ryegrass, Italian [6]
  Plant response rating, Ryegrass, Italian: 100
Ragweed [7]; [23]
  Plant response rating, Ragweed: 0
Ragweed [7]; [24]
  Plant response rating, Ragweed: 0
foxtail, giant [8]; [25]
  Foxtail, Giant plant response rating: 20
foxtail, giant [8]; 500 g ai/ha
  Plant response rating, Foxtail, Giant: 90
Soybean [9]; [23]
  Plant response rating, Soybean: 0
Soybean [9]; [24]
  Plant response rating, Soybean: 0
pigweed, palmer [10]; [25]
  Pigweed, Palmer plant response rating: 60
pigweed, palmer [10]
  Plant response rating, Pigweed, Palmer: 90
Kochia [11]; [23]
  Plant response rating, Kochia: 0
Kochia [11]; [24]
  Plant response rating, Kochia: 30
foxtail, giant [12]; [23]
  Plant response rating, Foxtail, Giant: 20
foxtail, giant [12]; [24]
  Plant response rating, Foxtail, Giant: 90
Kochia [13]; [25]
  Kochia plant response rating: 50
Kochia [13]; 500 g ai/ha
  Plant response rating, Kochia: 90
Corn [14]; [25]
  Corn plant response rating: 0
Corn [14]; 500 g ai/ha
  Plant response rating, Corn: 50
rice
  Plant response rating, Rice: 0
Goosegrass [15]; [25]
  Goosegrass plant response rating: 10
Goosegrass [15]; 500 g ai/ha
  Plant response rating, Goosegrass: 30
horseweed; [25]
  Horseweed plant response rating: 0
horseweed; 500 g ai/ha
  Plant response rating, Horseweed: 0
Wheat [16]; [25]
  Wheat plant response rating: 10
Wheat [16]
  Plant response rating, Wheat: 20
oat, wild [17]; [25]
  Oat, Wild plant response rating: 10
oat, wild [17]
  Plant response rating, Oat, Wild: 20
Goosegrass [18]; [23]
  Plant response rating, Goosegrass: 70
Goosegrass [18]; [24]
  Plant response rating, Goosegrass: 90
sedge, umbrella
  Plant response rating, Sedge, Umbrella: 0
pigweed, palmer [19]; [23]
  Plant response rating, Pigweed, Palmer: 30
pigweed, palmer [19]; [24]
  Plant response rating, Pigweed, Palmer: 80
Wheat [20]; [23]
  Plant response rating, Wheat: 10
Wheat [20]; [24]
  Plant response rating, Wheat: 10
ryegrass, Italian [21]; [23]
  Plant response rating, Ryegrass, Italian: 50
ryegrass, Italian [21]; [24]
  Plant response rating, Ryegrass, Italian: 80
Blackgrass [22]; [23]
  Plant response rating, Blackgrass: 30
Blackgrass [22]; [24]
  Plant response rating, Blackgrass: 60
